Source: PubChem BioAssay (NCI)
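Test compounds were applied to cells in 96-well plates for 48 hours at 5 doses. At the GI50, growth is halved. TGI: concentration producing complete growth inhibition.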

Tests used:
Test in all cases: NCI tumour cell line growth inhibition, 48 h
NCI/ADR-RES ovarian = test system: NCI/ADR-RES ovarian
OVCAR-8 ovarian = test system: OVCAR-8 ovarian
RPMI-8226 leukemia = test system: RPMI-8226 leukemia
NCI-H522 lung = test system: NCI-H522 lung
MDA-MB-435 = test system: MDA-MB-435
IGROV1 ovarian = test system: IGROV1 ovarian
TK-10 renal = test system: TK-10 renal
SK-MEL-5 melanoma = test system: SK-MEL-5 melanoma
UACC-257 melanoma = test system: UACC-257 melanoma
SW-620 colon = test system: SW-620 colon
SNB-19 CNS = test system: SNB-19 CNS
OVCAR-3 ovarian = test system: OVCAR-3 ovarian
HCC-2998 colon = test system: HCC-2998 colon
MALME-3M melanoma = test system: MALME-3M melanoma
786-0 renal = test system: 786-0 renal
NCI-H23 lung = test system: NCI-H23 lung
A498 renal = test system: A498 renal
SK-MEL-2 melanoma = test system: SK-MEL-2 melanoma
HT29 colon = test system: HT29 colon
LOX IMVI melanoma = test system: LOX IMVI melanoma
SF-268 CNS = test system: SF-268 CNS
MCF7 breast = test system: MCF7 breast
HOP-92 NSCLC = test system: HOP-92 NSCLC
HS 578T breast = test system: HS 578T breast
HCT-15 colon = test system: HCT-15 colon
SK-MEL-28 melanoma = test system: SK-MEL-28 melanoma
M14 melanoma = test system: M14 melanoma
COLO 205 colon = test system: COLO 205 colon
T-47D breast = test system: T-47D breast
HCT-116 colon = test system: HCT-116 colon
SK-OV-3 ovarian = test system: SK-OV-3 ovarian
SNB-75 CNS = test system: SNB-75 CNS
HOP-62 NSCLC = test system: HOP-62 NSCLC
DU-145 prostate = test system: DU-145 prostate
SF-295 CNS = test system: SF-295 CNS
MOLT-4 leukemia = test system: MOLT-4 leukemia
ACHN renal = test system: ACHN renal
K-562 leukemia = test system: K-562 leukemia
U251 CNS = test system: U251 CNS
NCI-H460 lung = test system: NCI-H460 lung
OVCAR-5 ovarian = test system: OVCAR-5 ovarian
NCI-H226 lung = test system: NCI-H226 lung
UO-31 renal = test system: UO-31 renal
OVCAR-4 ovarian = test system: OVCAR-4 ovarian
CAKI-1 renal = test system: CAKI-1 renal
BT-549 breast = test system: BT-549 breast
PC-3 prostate = test system: PC-3 prostate
SN12C renal = test system: SN12C renal
UACC-62 melanoma = test system: UACC-62 melanoma
HL-60(TB) leukemia = test system: HL-60(TB) leukemia
EKVX NSCLC = test system: EKVX NSCLC
KM12 colon = test system: KM12 colon
SF-539 CNS = test system: SF-539 CNS
MDA-MB-231 breast = test system: MDA-MB-231 breast
CCRF-CEM leukemia = test system: CCRF-CEM leukemia
A549 NSCLC = test system: A549 NSCLC
SR leukemia = test system: SR leukemia

`COc1ccc([C@H]2[C@H](O)C(=O)N2c2cc(OC)c(OC)c(OC)c2)cc1` showed a GI50 (NCI/ADR-RES ovarian) of under 13.9 nM, a TGI (NCI/ADR-RES ovarian) of 3840 nM and a GI50 (OVCAR-8 ovarian) of under 10 nM. The TGI (OVCAR-8 ovarian) was under 10 nM, the GI50 (RPMI-8226 leukemia) was under 10 nM and the TGI (RPMI-8226 leukemia) was over 100000 nM. It also gave a GI50 (NCI-H522 lung) of under 10 nM, a TGI (NCI-H522 lung) of under 10 nM and a GI50 (MDA-MB-435) of under 10 nM. For the same molecule, the TGI (MDA-MB-435) was under 10 nM, the GI50 (IGROV1 ovarian) was under 10.8 nM and the TGI (IGROV1 ovarian) was over 100000 nM. The GI50 (TK-10 renal) was over 100000 nM, the TGI (TK-10 renal) was over 100000 nM and the GI50 (SK-MEL-5 melanoma) was under 10 nM. The TGI (SK-MEL-5 melanoma) was 38.7 nM, the GI50 (UACC-257 melanoma) was 1870 nM and the TGI (UACC-257 melanoma) was over 100000 nM. It also gave a GI50 (SW-620 colon) of under 10.9 nM, a TGI (SW-620 colon) of over 100000 nM and a GI50 (SNB-19 CNS) of under 26.7 nM. For the same molecule, the TGI (SNB-19 CNS) was over 100000 nM, the GI50 (OVCAR-3 ovarian) was under 10 nM and the TGI (OVCAR-3 ovarian) was 120 nM. The GI50 (HCC-2998 colon) was under 15.8 nM, the TGI (HCC-2998 colon) was over 100000 nM and the TGI (MALME-3M melanoma) was over 100000 nM. It also gave a GI50 (786-0 renal) of under 17.8 nM, a TGI (786-0 renal) of over 100000 nM and a GI50 (NCI-H23 lung) of 11 nM. For the same molecule, the TGI (NCI-H23 lung) was over 100000 nM, the GI50 (A498 renal) was over 100000 nM and the TGI (A498 renal) was over 100000 nM. The GI50 (SK-MEL-2 melanoma) was 30.9 nM, the TGI (SK-MEL-2 melanoma) was over 100000 nM and the GI50 (HT29 colon) was under 10 nM. The GI50 (LOX IMVI melanoma) was under 10 nM, the TGI (LOX IMVI melanoma) was over 100000 nM and the GI50 (SF-268 CNS) was under 20.7 nM. For the same molecule, the TGI (SF-268 CNS) was over 100000 nM, the GI50 (MCF7 breast) was under 10 nM and the TGI (MCF7 breast) was over 100000 nM. The TGI (HOP-92 NSCLC) was over 100000 nM, the GI50 (HS 578T breast) was under 11.1 nM and the TGI (HS 578T breast) was over 100000 nM. It also gave a GI50 (HCT-15 colon) of under 10.3 nM, a TGI (HCT-15 colon) of over 100000 nM and a GI50 (SK-MEL-28 melanoma) of 1700 nM. It also gave a TGI (SK-MEL-28 melanoma) of over 100000 nM, a GI50 (M14 melanoma) of under 12.7 nM and a TGI (M14 melanoma) of over 100000 nM. It also gave a GI50 (COLO 205 colon) of under 13.2 nM, a TGI (COLO 205 colon) of under 20.9 nM and a GI50 (T-47D breast) of over 100000 nM. It also gave a TGI (T-47D breast) of over 100000 nM, a GI50 (HCT-116 colon) of under 10 nM and a TGI (HCT-116 colon) of over 100000 nM. For the same molecule, the GI50 (SK-OV-3 ovarian) was under 12.1 nM, the TGI (SK-OV-3 ovarian) was over 100000 nM and the GI50 (SNB-75 CNS) was under 10 nM. It also gave a TGI (SNB-75 CNS) of over 100000 nM, a GI50 (HOP-62 NSCLC) of under 19.9 nM and a TGI (HOP-62 NSCLC) of over 100000 nM. For the same molecule, the GI50 (DU-145 prostate) was under 10.9 nM, the GI50 (SF-295 CNS) was under 10 nM and the TGI (SF-295 CNS) was over 100000 nM. The GI50 (MOLT-4 leukemia) was under 16.8 nM, the TGI (MOLT-4 leukemia) was over 100000 nM and the GI50 (ACHN renal) was under 10 nM. For the same molecule, the TGI (ACHN renal) was over 100000 nM, the GI50 (K-562 leukemia) was under 10 nM and the TGI (K-562 leukemia) was over 100000 nM. For the same molecule, the GI50 (U251 CNS) was under 10 nM, the TGI (U251 CNS) was over 100000 nM and the GI50 (NCI-H460 lung) was under 13.3 nM. The TGI (NCI-H460 lung) was over 34300 nM, the GI50 (OVCAR-5 ovarian) was under 17.9 nM and the TGI (OVCAR-5 ovarian) was over 100000 nM. For the same molecule, the GI50 (NCI-H226 lung) was under 10 nM, the TGI (NCI-H226 lung) was over 100000 nM and the GI50 (UO-31 renal) was under 14 nM. It also gave a TGI (UO-31 renal) of over 100000 nM, a GI50 (OVCAR-4 ovarian) of 1750 nM and a TGI (OVCAR-4 ovarian) of over 100000 nM. For the same molecule, the GI50 (CAKI-1 renal) was under 10 nM, the TGI (CAKI-1 renal) was over 100000 nM and the GI50 (BT-549 breast) was under 13.7 nM. It also gave a TGI (BT-549 breast) of 288 nM, a GI50 (PC-3 prostate) of under 10 nM and a TGI (PC-3 prostate) of over 100000 nM. It also gave a GI50 (SN12C renal) of under 15 nM, a TGI (SN12C renal) of over 100000 nM and a GI50 (UACC-62 melanoma) of under 10 nM. For the same molecule, the TGI (UACC-62 melanoma) was over 100000 nM, the GI50 (HL-60(TB) leukemia) was under 10 nM and the TGI (HL-60(TB) leukemia) was under 17.2 nM. It also gave a TGI (EKVX NSCLC) of over 100000 nM, a GI50 (KM12 colon) of under 10 nM and a TGI (KM12 colon) of over 100000 nM. The GI50 (SF-539 CNS) was under 10 nM, the TGI (SF-539 CNS) was under 10 nM and the GI50 (MDA-MB-231 breast) was under 16.2 nM. It also gave a TGI (MDA-MB-231 breast) of over 100000 nM, a GI50 (CCRF-CEM leukemia) of under 10 nM and a TGI (CCRF-CEM leukemia) of over 100000 nM. It also gave a GI50 (A549 NSCLC) of under 13.2 nM, a TGI (A549 NSCLC) of over 100000 nM and a GI50 (SR leukemia) of under 10 nM.
